Measured values published in patent US11414377B2, “Modulator of metabotropic and ionotropic transmembrane receptors and use thereof” (IBD THERAPEUTICS LLC, priority 2018, dated 2022).
pIC50: −log10 of the molar value.

Key:
[1] = test system: guinea pigs of Agouti line; experiment: Capsaicin cough model in guinea pigs, inhalation administration; type: in vivo
[2] = molecular target: T1, human NK1R (Homo sapiens, UniProt P25103); experiment: Effect on activity of tachykinin receptor type 1 (intracellular calcium, fluorescence); type: cell-based; conditions: U373 cells expressing human NK1R, agonist [Sar9,Met(O2)11]-SP 1 nM, read-out: IC50, antagonist of tachykinin receptor type 1
T1 construct: U373 cells expressing human NK1R were used in the experiment; endogenous in cells; host or cells: U373 cells
T1 sequence (P25103 whole entry): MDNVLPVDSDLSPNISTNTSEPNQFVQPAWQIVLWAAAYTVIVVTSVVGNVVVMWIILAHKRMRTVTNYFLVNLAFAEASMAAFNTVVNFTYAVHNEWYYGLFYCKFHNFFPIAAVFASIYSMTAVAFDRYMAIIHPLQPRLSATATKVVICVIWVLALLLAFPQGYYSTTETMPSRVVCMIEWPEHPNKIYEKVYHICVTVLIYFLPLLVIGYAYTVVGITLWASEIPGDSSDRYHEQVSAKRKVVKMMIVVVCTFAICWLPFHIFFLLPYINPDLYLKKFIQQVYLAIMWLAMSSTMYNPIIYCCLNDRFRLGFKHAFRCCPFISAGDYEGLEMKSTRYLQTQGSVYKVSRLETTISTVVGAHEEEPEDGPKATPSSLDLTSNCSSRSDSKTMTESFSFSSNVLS
Experimental: (§1) Compound I was dissolved in DMSO to a concentration of 100 mM; then the stock solution was serially diluted with DMSO. The maximal start concentration of substance is 100 μM. The effect was determined at 8 concentrations of test compound, each concentration was investigated twice. U373 cells expressing human NK1R were used in the experiment, said cells after the preincubation with an agonist [Sar9,Met(O2)11]-SP (1 nM) were incubated with Compound I. The activity of receptors was determined by the intracellular calcium concentration using fluorescence spectroscopy (Glia. 1992; 6(2):89-95).

[3] = Pharmacokinetics and tissue bioavailability after oral administration to rats; type: in vivo; conditions: oral 10 mg/kg (therapeutic dose)
Experimental: To confirm low systemic availability of Compound 1, the study of pharmacokinetics and bioavailability of Compound 1 was carried out after the oral administration to rats in a dose of 10 mg/kg. The study was carried out on 18 male Vistar rats. Blood sampling in the animals was carried out at given time points for 24 h after the administration of the preparation. The content of Compound 1 in plasma samples was analyzed by HPLC-MS/MS, the […] was 1 ng/ml.

[4] = test system: male and female rats; experiment: Acute toxicity at single administration, rats; type: in vivo; conditions: for Body weight gain / Death of animals: male and female; for Death of animals: 14 days observation
Experimental: (§2) The acute toxicity study was performed on 24 male and 24 female rats, and also on 24 male and 24 female mice. Before the administration of the Compound I, the body weight of the animals was recorded, after 1 hour of the administration, the state of the experimental animals was observed. Then, the body weights of rats and mice were recorded daily for 14 days after the administration of the substance, and the examination was carried out to detect the cases of death and abnormality in the state of the animals.
(§3) Compound I was administered to rats and mice intragastrically at a dose of 5000 mg/kg, intraperitoneally—at a dose of 2000 mg/kg. Control groups (female and male objects) were received a solvent (0.1% Tween-80 solution in water).

[5] = test system: rats; experiment: Stress-induced defecation model in rats; type: in vivo; conditions: 40 minutes restraint, control 2.65 ± 0.35, intact 0.24 ± 0.05
Experimental: The study of the activity of Compound I in the stress-induced defecation model was carried out by a standard procedure (Taguchi R., Shikata K., Furuya Y, Hirakawa T., Ino M., Shin K., Shibata H. Selective corticotropin-releasing factor 1 receptor antagonist E2508 reduces restraint stress-induced defecation and visceral pain in rat models//Psychoneuroendocrinology. 2017. P. 110-115).
Rats were adapted to a room in which the experiment was conducted for 24 hours. The study was carried out on satisfied rats. Compound I was administered once, intragastrically. After 1 hour, the rat was placed in the cloth so that the front paws were pressed to the body. In such a form, the rat was placed into the individual cage on the gating and was left for 40 minutes. Summarily the whole of excrement released during the observation period of 40 minutes then was weighed.
For all data, descriptive statistics is applied: the arithmetic mean (M) and the standard error of the mean (m) are counted up. The normality of distribution of the values obtained in the course of the experiment was checked with the aid of the Shapiro-Wilk test. In the case of normal distribution, 1-way ANOVA (with […] post hoc test) was used to evaluate the inter-group distinctions. In the case of the distribution that is other than normal one, the […] was used for the comparison of several groups.

[6] = molecular target: T2, human NK2R (Homo sapiens, UniProt P21452); experiment: Effect on activity of tachykinin receptor type 2 (intracellular calcium, fluorescence); type: cell-based; conditions: CHO cells expressing human NK2R, agonist [Nleu10]-NKA-(4-10) 10 nM, read-out: IC50, antagonist of tachykinin receptor type 2
T2 construct: expressed in transfected cells; host or cells: CHO cells
T2 sequence (P21452 1-398): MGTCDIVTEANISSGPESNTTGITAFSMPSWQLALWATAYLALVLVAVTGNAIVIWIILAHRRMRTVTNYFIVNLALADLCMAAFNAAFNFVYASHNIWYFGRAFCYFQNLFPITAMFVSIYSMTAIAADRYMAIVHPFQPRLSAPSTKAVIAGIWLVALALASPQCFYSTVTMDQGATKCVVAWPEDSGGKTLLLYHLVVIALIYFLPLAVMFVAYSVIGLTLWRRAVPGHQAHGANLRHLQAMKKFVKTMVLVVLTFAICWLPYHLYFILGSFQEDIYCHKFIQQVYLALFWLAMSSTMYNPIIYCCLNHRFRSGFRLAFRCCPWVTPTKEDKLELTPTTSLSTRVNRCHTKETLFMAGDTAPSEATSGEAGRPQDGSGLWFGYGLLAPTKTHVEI
Experimental: as §1, with “[…].” for “μM.”, “CHO” for “U373”, “NK2R” for “NK1R”, “[Nleu10]-NKA-(4-10) (10” for “[Sar9,Met(O2)11]-SP (1”, “the test compound.” for “Compound I.”, “(Biochem Biophys Res Commun. 1994 May 16; 200(3):1512-20).” for “(Glia. 1992; 6(2):89-95).”

[7] = test system: male and female mice; experiment: Acute toxicity at single administration, mice; type: in vivo; conditions: for Body weight gain / Death of animals: male and female; for Death of animals: 14 days observation
Experimental: as §2, §3

[8] = Solubility remark in acute toxicity dosing; type: physicochemical; conditions: solvent 0.1% Tween-80 solution in water; 2000 mg/kg dose given in 2 administrations
Experimental: as §3

[9] = intragastrically 5000 mg/kg, intraperitoneally 2000 mg/kg

O=C(Cc1ccc(O)cc1)N[C@@H](Cc1ccccc1)C(=O)NCCc1ccccc1 [Compound I, 2-phenylethylamide N-(p-hydroxyphenylacetyl)phenylalanine]
Suppression of cough (% from the control) ([1]; 0.25 mg/kg by inhalation 15 minutes before capsaicin): 46.7% | A number of cough attacks for 15 minutes from the start of inhalation (test) ([1]; 0.25 mg/kg by inhalation 15 minutes before capsaicin 30 μM, control 15.2 ± 0.8): 8.1 ± 0.2*& | pIC50 [2]: 4.23 | Penetration into the brain [3]: does not penetrate into the brain of rats | Differences in the spontaneous behaviour, responses to the caused reactions [4, 9]: not observed | Body weight gain ([4]; intragastrically 5000 mg/kg): lag in body weight gain | Death of animals ([4]; intragastrically 5000 mg/kg): did not cause death of animals | Body weight gain ([4]; intraperitoneally 2000 mg/kg): lag in body weight gain | Death of animals ([4]; intraperitoneally 2000 mg/kg): did not cause death of animals | Weight of excrement ([5]; 0.3 mg/kg once intragastrically): 2.35 ± 0.35 g | Weight of excrement ([5]; 1 mg/kg once intragastrically): 1.43 ± 0.12 g | Weight of excrement ([5]; 3 mg/kg once intragastrically): 1.00 ± 0.06& g | pIC50 [6]: 5.19 | Differences in the spontaneous behaviour, responses to the caused reactions [7, 9]: not observed | Body weight gain ([7]; intragastrically 5000 mg/kg): lag in body weight gain | Death of animals ([7]; intragastrically 5000 mg/kg): did not cause death of animals | Body weight gain ([7]; intraperitoneally 2000 mg/kg): lag in body weight gain | Death of animals ([7]; intraperitoneally 2000 mg/kg): did not cause death of animals | Solubility [8]: poor
